Measurements from patent US5849782A, “Methods of inhibiting neurodegenerative diseases” (The General Hospital Corporation, priority 1996, dated 1998).

How the values were obtained:
Male Swiss-Webster mice = test: MPTP-induced neurotoxicity in mice: striatal dopamine, DOPAC, HVA; assay type: in vivo, mouse; settings: at 1 week
Experimental: Methods. Male Swiss-Webster mice (30-35 g:Taconic Farms, Germantown, N.Y., U.S.A.) were treated with either normal saline or MPTP hydrochloride (Research Biochemicals, Natick, Mass., U.S.A.). MPTP was administered in 0.1 ml of water at a dose of 10 mg/kg i.p. at 2-h intervals for six doses or 20 mg/kg i.p. at 2-h intervals for four doses. 7-NI (Cookson Chemical Ltd., Southhampton, U.K.) was dissolved in peanut oil (Sigma, St. Louis, Mo., U.S.A.) at a concentration of 5 mg/ml. Mice received doses of 25 or 50 mg/kg per subcutaneous injection. MPTP-treated animals were treated with peanut oil or 7-NI 12 h before the first, at every MPTP injection, and every 8 h for 48 h after MPTP injections. Eleven to 12 animals were used in each group. Animals were killed at 1 week. The two striata were rapidly dissected and placed in chilled 0.1M perchloric acid. Tissue was subsequently sonicated, and aliquots were taken for protein quantification using a fluorometric assay (Beal et al., 1990) J. Neurochem. 55:1327-1339).
Dopamine, 3,4-dihydroxyphenlyacetic acid (DOPAC), homovanillic acid (HVA), p-tyrosine, and 3-nitrotyrosine were quantified by HPLC with 16-electrode electrochemical detection (Beal et al. (1990) supra) and are expressed as ng/mg protein (mean±SEM) (FIG. 1). 3-Nitrotyrosine data are expressed as ratios of 3-nitrotyrosine to p-tyrosine to normalize for differing brain concentrations of tyrosine. The statistical significance of differences was determined via one-way ANOVA followed by Fisher PLSD post hoc test to compare group means. All animal use procedures were in strict accordance with the NIH Guide for the Care and Use of Laboratory Animals and were approved by the local Animal Care Committee.

MAO-B [1] = target: T1, MAO-B (Mus musculus, UniProt Q8BW75); test: MAO-B activity in vitro, mitochondrial fraction of mouse forebrain; assay type: biochemical; settings: at 1, 10, and 100 μM
T1 construct: Crude mitochondrial preparations were obtain from the forebrains; from tissue; host or cells: mouse forebrain, crude mitochondrial fraction (P2 pellet on a discontinuous Ficoll gradient)
T1 sequence (Q8BW75 1-520): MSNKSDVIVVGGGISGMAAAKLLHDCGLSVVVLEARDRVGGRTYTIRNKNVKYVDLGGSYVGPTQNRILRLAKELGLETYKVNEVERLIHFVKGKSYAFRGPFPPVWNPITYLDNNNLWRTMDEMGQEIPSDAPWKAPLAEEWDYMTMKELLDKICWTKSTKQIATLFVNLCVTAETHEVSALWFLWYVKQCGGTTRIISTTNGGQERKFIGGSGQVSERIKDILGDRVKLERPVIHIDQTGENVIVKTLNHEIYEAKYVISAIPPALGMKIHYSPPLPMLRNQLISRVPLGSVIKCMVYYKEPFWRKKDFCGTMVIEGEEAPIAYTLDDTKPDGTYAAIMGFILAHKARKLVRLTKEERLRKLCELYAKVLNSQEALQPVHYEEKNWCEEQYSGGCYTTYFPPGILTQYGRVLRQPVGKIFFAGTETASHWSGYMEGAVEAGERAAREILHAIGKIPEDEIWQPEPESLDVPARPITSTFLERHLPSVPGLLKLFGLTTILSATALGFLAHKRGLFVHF

Male Sprague Dawley rats = test: Salicylate hydroxyl trapping and 3-nitrotyrosine after systemic 3-NP; assay type: in vivo, rat; settings: 3-NP 20 mg/kg i.p. every 12 h x3; 7-NI 50 mg/kg
Experimental: Salicylate assay and 3-nitrotyrosine measurements. The salicylate hydroxyl trapping method of Floyd et al. ((1984) supra, Cao et al. (1988) Neurosci. Lett. 88:233-238, and Hall et al. (1993) J. Neurochem. 60:588-594) was used for measuring ^.cndot. OH radicals in striatal tissue following i.p. administration of 3-NP. Male Sprague Dawley rats weighing 125-150 g (n-10 per group) were injected i.p. every 12 h for 3 times with either (i) saline, (ii) 20 mg/kg of 3-NP and peanut oil vehicle, or (iii) 20 mg/kg of 3-NP and 7-NI dissolved in peanut oil. […] Salicylate and its metabolites 2,3 and 2,5 dihydroxybenzoic acid (DHBA) were quantified by HPLC with 16-electrode electrochemical detection (Beal et al. (1990) supra). Salicylate, 2,3 and 2,5 DHBA, tyrosine and 3-nitrotyrosine were measured electrochemically by oxidation at 840, 240, 120 mV, 600 mV, and 840 mV, respectively. The data were expressed as the ratio of 2,3 and 2,5 DHBA to salicylate and 3-nitrotyrosine concentrations for differing brain concentrations of salicylate and tyrosine, which could be a consequence of impairment of the blood-brain barrier (salicylate) or neuronal loss during treatment (tyrosine).

MAO-B [2] = target: T1, MAO-B; test: MAO-B activity in forebrain mitochondrial fractions of treated mice; assay type: biochemical; settings: four doses at 2-h intervals: deprenyl 10 mg/kg i.p. or 7-NI 50 mg/kg s.c.; vehicle 5.79±0.44
dopamine transporter = dopamine transporter (Mus musculus, UniProt Q61327); settings: at 1, 10 and 100 μM; 0.13 μM [3H]-dopamine
Chain of dopamine transporter (Q61327 whole entry): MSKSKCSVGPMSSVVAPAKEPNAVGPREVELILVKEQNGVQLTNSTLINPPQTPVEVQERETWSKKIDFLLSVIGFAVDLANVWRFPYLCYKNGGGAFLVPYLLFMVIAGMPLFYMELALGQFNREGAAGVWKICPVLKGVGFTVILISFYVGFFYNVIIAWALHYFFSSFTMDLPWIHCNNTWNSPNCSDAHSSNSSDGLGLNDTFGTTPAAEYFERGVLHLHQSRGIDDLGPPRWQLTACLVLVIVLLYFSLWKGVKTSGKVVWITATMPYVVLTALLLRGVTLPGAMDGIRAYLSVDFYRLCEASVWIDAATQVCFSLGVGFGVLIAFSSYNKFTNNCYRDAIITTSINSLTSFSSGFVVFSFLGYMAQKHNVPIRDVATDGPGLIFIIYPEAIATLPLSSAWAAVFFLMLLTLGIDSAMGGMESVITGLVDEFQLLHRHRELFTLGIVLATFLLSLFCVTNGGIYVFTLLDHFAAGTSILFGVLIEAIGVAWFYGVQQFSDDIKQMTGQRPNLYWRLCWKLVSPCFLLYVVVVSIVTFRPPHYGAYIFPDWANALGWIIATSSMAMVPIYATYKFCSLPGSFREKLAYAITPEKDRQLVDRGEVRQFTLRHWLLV

[3] = Yoshida et al. 1994; cited from earlier work
mice = test: Rectal temperature in mice; settings: 7-NI 50 mg/kg
Experimental: To exclude the possibility that hypothermia may contribute to the protection, we maintained body temperature at 37.5° C. in controls, mice treated with four doses of MPTP at 20 mg/kg, and mice additionally treated with 7-NI (n=6 per group).

For `O=[N+]([O-])c1cccc2cn[nH]c12` [7-NI, 7-nitroindazole], the “striatal dopamine, % of control values” (Male Swiss-Webster mice; MPTP 10 mg/kg i.p. x6 at 2-h intervals, 7-NI 50 mg/kg s.c.) was 92 % of control values, the “protection against MPTP-induced depletions of dopamine, HVA and DOPAC” value (Male Swiss-Webster mice; MPTP 20 mg/kg i.p. x4, 7-NI 50 mg/kg) was “almost complete protection” and the “inhibition of MAO-B activity in vitro” value (MAO-B [1]) was “did not inhibit”. The “3-NP-induced increase of 2,3 and 2,5 DHBA” value (Male Sprague Dawley rats) was “significantly attenuated”, the “3-NP-induced increase of 3-nitrotyrosine in striatum” value (Male Sprague Dawley rats) was “significantly attenuated” and the “MAO-B activity in forebrain mitochondrial fraction after in vivo treatment” value (MAO-B [2]) was 5.69±0.40 nmol/min/mg of protein. The “inhibition of [3H]dopamine uptake into synaptosomes” value (dopamine transporter) was “did not inhibit”, the “efficacy against focal ischemic lesions in vivo” value [3] was “efficacious” and the “decrease in rectal temperature vs peanut oil controls” value (mice; 0.5 h after injection, p=0.03) was 0.6 °C. The rectal temperature (mice; 0.5 h after injection, peanut oil controls 36.8±0.2) was 36.2±0.1 °C and the “change in rectal temperature vs peanut oil controls” value (mice; 1 h after injection) was “no significant decrease”.
